The results in this text go back to ChEMBL document CHEMBL3352476, “Antimicrobial Constituents of the Mature Carpels of Manglietiastrum sinicum” (J Nat Prod, 2014).

One experiment concerns A549. As to the kind of experiment: Cytotoxicity against human A549 cells by MTT assay. It counts as functional, cell-based. On the technique in general: Tetrazolium assays rely on reduction of a dye to a coloured formazan, in cell work by metabolically active cells.
Experiment [1] relates to Staphylococcus aureus. As to the kind of experiment: Antimicrobial activity against methicillin-resistant Staphylococcus aureus 82 by 2-fold dilution assay. It counts as functional.
Experiment [2] can be described thus: Cytotoxicity against human SSMC-7721 cells by MTT assay. It is filed as functional, cell-based.
The subject of experiment [3] is Staphylococcus aureus. The experiment can be described thus: Antimicrobial activity against Staphylococcus aureus by 2-fold dilution assay. It is filed as functional.
In another experiment the test system is MCF7. As to the kind of experiment: Cytotoxicity against human MCF7 cells by MTT assay. It is filed as functional, cell-based.
The nature of experiment [4]: Cytotoxicity against human HL60 cells by MTT assay. It counts as functional, cell-based. The note with it: HL-60.
The subject of experiment [5] is Staphylococcus aureus. As to the kind of experiment: Antimicrobial activity against methicillin-resistant Staphylococcus aureus 98 by 2-fold dilution assay. It is filed as functional.
The subject of experiment [6] is Platelet. As to the kind of experiment: Inhibition of ADP-induced platelet aggregation in rabbit platelet rich plasma at 200 ug/ml preincubated for 10 mins before addition of inducer by aggregometry. It counts as functional. The note with it: Oryctolagus cuniculus.
Experiment [7] relates to Staphylococcus aureus. The experiment can be described thus: Antimicrobial activity against methicillin-resistant Staphylococcus aureus 331 by 2-fold dilution assay. It counts as functional.
The next experiment deals with SW480. The experiment can be described thus: Cytotoxicity against human SW480 cells by MTT assay. It is filed as functional, cell-based.
Experiment [8] relates to Platelet. As to the kind of experiment: Inhibition of arachidonic acid-induced platelet aggregation in rabbit platelet rich plasma at 200 ug/ml preincubated for 10 mins before addition of inducer by aggregometry. It is filed as functional. The note with it: Oryctolagus cuniculus.
Experiment [9] concerns Staphylococcus aureus. The experiment can be described thus: Antimicrobial activity against methicillin-resistant Staphylococcus aureus 92 by 2-fold dilution assay. It is filed as functional.
In experiment [10] the test system is Platelet. As to the kind of experiment: Inhibition of PAF-induced platelet aggregation in rabbit platelet rich plasma at 200 ug/ml preincubated for 10 mins before addition of inducer by aggregometry. It is filed as functional. The note with it: Oryctolagus cuniculus.
In experiment [11] the test system is Staphylococcus aureus. The experiment can be described thus: Antimicrobial activity against Staphylococcus aureus by agar plate punch assay. It counts as functional.

In brackets after ≈: the same amount, converted by molar mass. Where a name gives a salt, the structure may show the parent alone. Activity calls are given as the source filed them. The calls are words filed in the database; no cut-off is given here.

As a reminder, the IC50 is the point on the concentration scale where inhibition reaches its midpoint. Lower therefore signals greater potency. By MIC is commonly meant the lowest concentration found to suppress growth. The low end stands for greater potency, the high end for weaker potency. For the compound `COC1=CC2(C=C(OC)C1=O)C[C@@H](C)[C@H](C)Cc1cc3c(c(OC)c12)OCO3`, the concentration for half-maximal inhibition (IC50) (in the experiment on A549; in [2]; in the experiment on MCF7; in experiment [4]; in the experiment on SW480) was greater than 40 µM each time. For the same compound, the MIC is 65 µM (≈ 25.1 µg/mL) against Staphylococcus aureus [1]; 130 µM (≈ 50.2 µg/mL) with Staphylococcus aureus [3]; 16 µM (≈ 6.18 µg/mL) in the experiment with Staphylococcus aureus [5]; 32 µM (≈ 12.4 µg/mL) against Staphylococcus aureus [7]; 65 µM (≈ 25.1 µg/mL) against Staphylococcus aureus [9]. Besides, the inhibition entry with Platelet [6], with Platelet [8] and with Platelet [10] was “inactive” throughout.
With `COc1cc(C(=O)O[C@@H](c2cc(O)c(OC)c(OC)c2)[C@H](C)C(C)=O)cc(O)c1OC`, the IC50 (with A549; in experiment [2]; in the experiment with MCF7; in [4]; in the experiment with SW480) was greater than 40 µM throughout. In the experiment with Staphylococcus aureus [11], the “diameter of the inhibition zone (DIZ)” value is less than 10 mm. Besides, the inhibition result with Platelet [6], in the experiment on Platelet [8] and in the experiment with Platelet [10] was “inactive” in each case.
Turning to `COc1cc2c(cc1O)[C@@H]1O[C@H](c3cc4c(c(OC)c3-2)OCO4)[C@H](C)[C@@H]1C`, the IC50 was greater than 40 µM in the experiment with A549; 38.2 µM in experiment [2]; greater than 40 µM in the experiment on MCF7; 17 µM in experiment [4]; greater than 40 µM in the experiment with SW480. The MIC with Staphylococcus aureus [1] was found to be 140 µM (≈ 51.9 µg/mL); in the experiment on Staphylococcus aureus [3], 68 µM (≈ 25.2 µg/mL); against Staphylococcus aureus [5], 34 µM (≈ 12.6 µg/mL); in the experiment with Staphylococcus aureus [7], 140 µM (≈ 51.9 µg/mL); in the experiment with Staphylococcus aureus [9] it was 68 µM (≈ 25.2 µg/mL). In addition, the inhibition entry with Platelet [6], in the experiment with Platelet [8] and with Platelet [10] was “inactive” each time.
Regarding `CN[C@H](CC(C)C)C(=O)N[C@H]1C(=O)N[C@@H](CC(N)=O)C(=O)N[C@H]2C(=O)N[C@H]3C(=O)N[C@H](C(=O)N[C@H](C(=O)O)c4cc(O)cc(O)c4-c4cc3ccc4O)[C@H](O)c3ccc(c(Cl)c3)Oc3cc2cc(c3O[C@@H]2O[C@H](CO)[C@@H](O)[C@H](O)[C@H]2O[C@H]2C[C@](C)(N)[C@H](O)[C@H](C)O2)Oc2ccc(cc2Cl)[C@H]1O` [VANCOMYCIN HYDROCHLORIDE], the MIC against Staphylococcus aureus [1] is 0.54 µM; in the experiment with Staphylococcus aureus [3], 1.1 µM; against Staphylococcus aureus [5], 0.54 µM; against Staphylococcus aureus [7] it was 0.54 µM; with Staphylococcus aureus [9], 0.54 µM.
For the compound `COc1cc([C@@H]2O[C@H](c3ccc4c(c3)OCO4)[C@H](C)[C@H]2C)cc(O)c1OC`, the IC50 (in the experiment on A549; in experiment [2]; in the experiment with MCF7; in experiment [4]; in the experiment with SW480) was greater than 40 µM each time. Further, the MIC amounted to 67 µM (≈ 25 µg/mL) in the experiment on Staphylococcus aureus [1]; 67 µM (≈ 25 µg/mL) in the experiment with Staphylococcus aureus [3]; 67 µM (≈ 25 µg/mL) in the experiment on Staphylococcus aureus [5]; 34 µM (≈ 12.7 µg/mL) against Staphylococcus aureus [7]; 67 µM (≈ 25 µg/mL) against Staphylococcus aureus [9]. The inhibition entry in the experiment on Platelet [6], with Platelet [8] and with Platelet [10] was “inactive” each time.
Regarding `COc1cc([C@@H]2O[C@H](c3cc(O)c(OC)c(OC)c3)[C@@H](C)[C@@H]2C)ccc1O`, the IC50 (with A549; in experiment [2]; in the experiment with MCF7; in experiment [4]; with SW480) was greater than 40 µM throughout. Further, the MIC against Staphylococcus aureus [1] is 67 µM (≈ 25.1 µg/mL); against Staphylococcus aureus [3] it was 130 µM (≈ 48.7 µg/mL); against Staphylococcus aureus [5], 130 µM (≈ 48.7 µg/mL); against Staphylococcus aureus [7], 130 µM (≈ 48.7 µg/mL); against Staphylococcus aureus [9] it was 130 µM (≈ 48.7 µg/mL). The inhibition entry in the experiment with Platelet [6], in the experiment on Platelet [8] and in the experiment on Platelet [10] was “inactive” in each case.
On to `COc1cc([C@H]2O[C@@H](c3ccc4c(c3)OCO4)[C@H](C)[C@@H]2C)cc(O)c1OC`, for which the concentration for half-maximal inhibition (IC50) in the experiment on A549 is 27.4 µM; in experiment [2], greater than 40 µM; in the experiment on MCF7, 14 µM; in [4], 39.8 µM; with SW480, 19.1 µM. Moreover, the MIC against Staphylococcus aureus [1] is 67 µM (≈ 25 µg/mL); in the experiment on Staphylococcus aureus [3], 67 µM (≈ 25 µg/mL); in the experiment on Staphylococcus aureus [5], 34 µM (≈ 12.7 µg/mL); against Staphylococcus aureus [7] it was 130 µM (≈ 48.4 µg/mL); against Staphylococcus aureus [9] it was 67 µM (≈ 25 µg/mL). Moreover, the inhibition entry in the experiment with Platelet [6], in the experiment with Platelet [8] and in the experiment with Platelet [10] was “inactive” throughout.
On to `COc1cc(C(=O)O[C@@H](c2cc(OC)c(OC)c(OC)c2)[C@H](C)C(C)=O)ccc1O`, for which the IC50 (with A549; in experiment [2]; in the experiment with MCF7; in [4]; in the experiment on SW480) was greater than 40 µM each time. Moreover, in the experiment on Staphylococcus aureus [11], the “diameter of the inhibition zone (DIZ)” value is listed as less than 10 mm. Besides, the inhibition entry in the experiment on Platelet [6], in the experiment with Platelet [8] and in the experiment with Platelet [10] was “inactive” in each case.
